Active and inactive are the calls of the source. The calls are words filed in the database; no cut-off is given here. Positions of bridges follow the written chain, without caps; N, C: chain ends. Non-standard residues stand in square brackets, D forms with d. Residues, ends and D or L forms follow the SMILES beside them. Dip = N[C@H](C(=O)O)C(c1ccccc1)c1ccccc1; Chg = N[C@H](C(=O)O)C1CCCCC1; S5 = C=CCCC[C@](C)(N)C(=O)O; NMeA = CN[C@@H](C)C(=O)O; AEEA = NCCOCCOCC(=O)O; βAla = NCCC(=O)O
Key:
Homo sapiens [1] = organism: Homo sapiens; assay: Induction of IAP-mediated NOTCH1 protein degradation in human MOLT4 cells assessed as ratio of NOTCH1 to lamin protein level at 80 uM after 6 hrs by Western blot analysis (reference value: 100%); type: cell-based
Homo sapiens [2] = organism: Homo sapiens; assay: Induction of IAP-mediated NOTCH1 protein degradation in human MOLT4 cells assessed as ratio of NOTCH1 to lamin protein level at 70 uM after 6 hrs by Western blot analysis (reference value: 100%); type: cell-based
MOLT-4 [3] = assay: Induction of CSL protein degradation in human MOLT4 cells assessed as ratio of CSL to lamin protein level at 50 uM after 6 hrs by Western blot analysis (reference value: 100%); type: functional
Homo sapiens [4] = organism: Homo sapiens; assay: Induction of IAP-mediated NOTCH1 protein degradation in human MOLT4 cells assessed as ratio of NOTCH1 to lamin protein level at 50 uM after 6 hrs by Western blot analysis (reference value: 100%); type: cell-based
MOLT-4 [5] = assay: Induction of CSL protein degradation in human MOLT4 cells assessed as ratio of CSL to lamin protein level at 80 uM after 6 hrs by Western blot analysis (reference value: 100%); type: functional
Homo sapiens [6] = organism: Homo sapiens; assay: Induction of IAP-mediated NOTCH1 protein degradation in human MOLT4 cells assessed as ratio of NOTCH1 to lamin protein level at 20 uM after 6 hrs by Western blot analysis (reference value: 100%); type: cell-based
MOLT-4 [7] = assay: Induction of CSL protein degradation in human MOLT4 cells assessed as ratio of CSL to lamin protein level at 60 uM after 6 hrs by Western blot analysis (reference value: 100%); type: functional
Homo sapiens [8] = organism: Homo sapiens; assay: Antagonist activity IAP in human MOLT4 cells assessed as reduction in cIAP1 protein level at 50 to 80 uM after 6 hrs by Western blot analysis; type: cell-based
MOLT-4 [9] = assay: Induction of CSL protein degradation in human MOLT4 cells assessed as ratio of CSL to lamin protein level at 20 uM after 6 hrs by Western blot analysis (reference value: 100%); type: functional
MOLT-4 [10] = assay: Cytotoxicity against human MOLT4 cells at >100 uM; type: cell-based
MOLT-4 [11] = assay: Induction of CSL protein degradation in human MOLT4 cells assessed as ratio of CSL to lamin protein level at 70 uM after 6 hrs by Western blot analysis (reference value: 100%); type: functional
Homo sapiens [12] = organism: Homo sapiens; assay: Induction of IAP-mediated NOTCH1 protein degradation in human MOLT4 cells assessed as ratio of NOTCH1 to lamin protein level at 100 uM after 6 hrs by Western blot analysis (reference value: 100%); type: cell-based
Homo sapiens [13] = organism: Homo sapiens; assay: Induction of IAP-mediated NOTCH1 protein degradation in human MOLT4 cells assessed as ratio of NOTCH1 to lamin protein level at 60 uM after 6 hrs by Western blot analysis (reference value: 100%); type: cell-based
MOLT-4 [14] = assay: Induction of CSL protein degradation in human MOLT4 cells assessed as ratio of CSL to lamin protein level at 100 uM after 6 hrs by Western blot analysis (reference value: 100%); type: functional

CC[C@H](C)[C@H](NC(=O)[C@H](CCCNC(=N)N)NC(=O)[C@H](CCCNC(=N)N)NC(=O)[C@H](CCCNC(=N)N)NC(=O)[C@H](CC(C)C)NC(=O)[C@H](CCCNC(=N)N)NC(=O)[C@H](CCC(=O)O)NC(=O)CCNC(=O)COCCOCCNC(=O)[C@@H](NC(=O)[C@@H]1CCCN1C(=O)[C@@H](NC(=O)[C@H](C)NC)C1CCCCC1)C(c1ccccc1)c1ccccc1)C(=O)N[C@@]1(C)CCC/C=C\CCC[C@@](C)(C(=O)N[C@@H](CCCNC(=N)N)C(=O)N[C@@H](Cc2cnc[nH]2)C(=O)N[C@@H](Cc2cnc[nH]2)C(=O)N[C@@H](CO)C(=O)N[C@H](C(=O)O)[C@@H](C)O)NC(=O)[C@H](CS)NC(=O)[C@H](CC(C)C)NC1=O (H-[NMeA][Chg]P[Dip][AEEA][βAla]ERLRRRI[S5]LC[S5]RHHST-OH; staple (Z) 14-17)
Ratio (Homo sapiens [1]): 77% | Ratio (Homo sapiens [2]): 99% | Ratio (MOLT-4 [3]): 105 - 108% | Ratio (Homo sapiens [4]): 87 to 99% | Ratio (MOLT-4 [5]): 102% | Ratio (Homo sapiens [6]): 105% | Ratio (MOLT-4 [7]): 104% | inhibition (Homo sapiens [8]): Active | Ratio (MOLT-4 [9]): 105% | Activity (MOLT-4 [10]): Toxic | Ratio (MOLT-4 [11]): 115% | Ratio (Homo sapiens [12]): 74% | Ratio (Homo sapiens [13]): 106% | Ratio (MOLT-4 [14]): 115%

CC[C@H](C)[C@H](NC(=O)[C@H](CCCNC(=N)N)NC(=O)[C@H](CCCNC(=N)N)NC(=O)[C@H](CCCNC(=N)N)NC(=O)[C@H](CC(C)C)NC(=O)[C@H](CCCNC(=N)N)NC(=O)[C@H](CCC(=O)O)NC(=O)CCN)C(=O)N[C@@H](CCC(=O)O)C(=O)N[C@@H](CC(C)C)C(=O)N[C@@H](CS)C(=O)N[C@@H](CCCNC(=N)N)C(=O)N[C@@H](CCCNC(=N)N)C(=O)N[C@@H](Cc1cnc[nH]1)C(=O)N[C@@H](Cc1cnc[nH]1)C(=O)N[C@@H](CO)C(=O)N[C@H](C(=O)O)[C@@H](C)O (H-[βAla]ERLRRRIELCRRHHST-OH)
Ratio (MOLT-4 [3]): 115% | Ratio (Homo sapiens [4]): 118% | Ratio (Homo sapiens [6]): 101% | Ratio (MOLT-4 [9]): 107% | Activity (MOLT-4 [10]): Toxic | Ratio (Homo sapiens [12]): 108% | Ratio (MOLT-4 [14]): 113%

CC[C@H](C)[C@H](NC(=O)[C@H](CCCNC(=N)N)NC(=O)[C@H](CCCNC(=N)N)NC(=O)[C@H](CCCNC(=N)N)NC(=O)[C@H](CC(C)C)NC(=O)[C@H](CCCNC(=N)N)NC(=O)[C@H](CCC(=O)O)NC(=O)CCN)C(=O)N[C@@]1(C)CCC/C=C\CCC[C@@](C)(C(=O)N[C@@H](CCCNC(=N)N)C(=O)N[C@@H](Cc2cnc[nH]2)C(=O)N[C@@H](Cc2cnc[nH]2)C(=O)N[C@@H](CO)C(=O)N[C@H](C(=O)O)[C@@H](C)O)NC(=O)[C@H](CS)NC(=O)[C@H](CC(C)C)NC1=O (H-[βAla]ERLRRRI[S5]LC[S5]RHHST-OH; staple (Z) 9-12)
Ratio (MOLT-4 [3]): 94% | Ratio (Homo sapiens [4]): 105% | Ratio (Homo sapiens [6]): 101% | Ratio (MOLT-4 [9]): 105% | Activity (MOLT-4 [10]): Toxic | Ratio (Homo sapiens [12]): 103% | Ratio (MOLT-4 [14]): 93%
